Data reported in patent US20250115600A1, “COVALENT MODIFIERS OF AKT1 AND USES THEREOF” (Terremoto Biosciences, Inc., priority 2022, published 2025).

Tests used:
AKT1 E17K mutant protein = AKT1 E17K mutant protein (Homo sapiens (Human), UniProt P31749, E17K); experiment: Intact mass spectrometry, covalent complex formation and ARQ-092 competition; assay type: binding; conditions: for covalent complex formation with AKT1 E17K mutant protein / covalent complex formation with AKT1 E17K mutant protein in presence of competitor: protein 1 μM, compound 1.5 μM, 2 hrs at 37° C., NaBH4 reduction; for covalent complex formation with AKT1 E17K mutant protein: absence of competitor; for covalent complex formation with AKT1 E17K mutant protein in presence of competitor: with ARQ092 (50 μM)
AKT1 E17K mutant protein, sequence (P31749 2-480 E17K): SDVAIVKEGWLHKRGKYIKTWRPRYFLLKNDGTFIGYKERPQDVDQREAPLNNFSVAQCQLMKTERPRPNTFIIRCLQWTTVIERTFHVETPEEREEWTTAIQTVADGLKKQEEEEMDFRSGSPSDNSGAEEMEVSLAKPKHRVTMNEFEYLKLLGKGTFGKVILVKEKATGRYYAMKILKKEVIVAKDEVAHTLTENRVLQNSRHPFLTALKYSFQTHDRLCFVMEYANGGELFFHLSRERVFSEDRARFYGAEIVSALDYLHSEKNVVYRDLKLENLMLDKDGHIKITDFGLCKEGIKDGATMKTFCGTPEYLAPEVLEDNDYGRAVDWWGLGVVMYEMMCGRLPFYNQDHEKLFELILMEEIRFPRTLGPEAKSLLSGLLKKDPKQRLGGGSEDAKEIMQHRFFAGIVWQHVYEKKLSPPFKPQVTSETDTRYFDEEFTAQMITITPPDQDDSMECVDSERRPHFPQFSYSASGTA
Summary of the method: (§1)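 AKT1 WT or E17K (1 μM) was incubated with compound (1.5 μM) for 2 hrs at 37° C., with or without ARQ092 (50 μM) competitor as specificity control. Imines were reduced with 5 mM NaBH4 for 5 min, quenched in acetonitrile+1% TFA, and covalent adducts read by intact-mass LCMS.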

AKT1 WT [1] = molecular target: T1, AKT1 WT (Homo sapiens (Human), UniProt P31749); experiment: as above; assay type: binding; conditions: protein 1 μM, compound 1.5 μM, 2 hrs at 37° C., NaBH4 reduction; for covalent complex formation with AKT1 WT protein: absence of competitor; for covalent complex formation with AKT1 WT protein in presence of competitor: with ARQ092 (50 μM)
Summary of the method: as §1
Target sequence in this assay (P31749 2-480): as the sequence (P31749 2-480 E17K) above, with K16E counted along it

AKT1 E17K [2] = molecular target: T2, AKT1 E17K (Homo sapiens (Human), UniProt P31749, E17K); experiment: Dissociation rate by intact protein LCMS after ARQ092 chase; assay type: binding; conditions: for AKT1 E17K t1/2: compound 1.5 μM, 2 hours at 37° C., then ARQ092 50 μM; for Off-rate Selectivity E17K/WT: ratio of t1/2
Procedure: (§2) AKT1 WT or AKT1 E17K (1 μM) were treated with a compound of Table 1 (1.5 μM) for 2 hours at 37° C., then ARQ092 (50 μM final concentration) was added to prevent aldehyde-containing compound rebinding after initial dissociation. At various timepoints, aliquots were removed and quenched with 5 mM NaBH4 for 5 min to capture the reversible imine through reductive amination. Reduction reactions were quenched by diluting the sample in equal volume acetonitrile+1% TFA, then analyzed by LCMS. Deconvoluted monoisotopic intensities of unmodified vs. compound-modified mass peaks were compared.
Target sequence in this assay (P31749 2-480 E17K): as the sequence (P31749 2-480 E17K) above

AKT1 WT [3] = molecular target: T1, AKT1 WT; experiment: as above; assay type: binding; conditions: compound 1.5 μM, 2 hours at 37° C., then ARQ092 50 μM
Procedure: as §2
Target sequence in this assay (P31749 2-480): as the sequence (P31749 2-480 E17K) above, with K16E counted along it

AKT1 E17K [4] = molecular target: T2, AKT1 E17K; experiment: Live cell target engagement (NanoBRET) in HEK293 cells; assay type: cell-based; conditions: for IC50: HEK293, 2 hours at 37° C.
Target sequence in this assay (P31749 whole entry E17K): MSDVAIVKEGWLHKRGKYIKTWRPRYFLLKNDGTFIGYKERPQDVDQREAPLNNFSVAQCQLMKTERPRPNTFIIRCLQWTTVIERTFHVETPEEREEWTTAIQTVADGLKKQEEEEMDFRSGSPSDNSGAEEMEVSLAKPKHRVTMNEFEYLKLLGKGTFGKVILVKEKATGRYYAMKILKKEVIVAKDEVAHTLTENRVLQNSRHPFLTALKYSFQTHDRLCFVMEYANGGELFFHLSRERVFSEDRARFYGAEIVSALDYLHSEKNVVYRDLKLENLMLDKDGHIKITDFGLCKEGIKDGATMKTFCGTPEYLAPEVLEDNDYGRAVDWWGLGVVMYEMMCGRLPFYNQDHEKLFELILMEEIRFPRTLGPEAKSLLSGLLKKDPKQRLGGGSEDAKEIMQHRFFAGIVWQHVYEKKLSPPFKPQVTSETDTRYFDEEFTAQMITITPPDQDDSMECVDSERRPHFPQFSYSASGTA

AKT1 WT [5] = molecular target: T1, AKT1 WT; experiment: as above; assay type: cell-based; conditions: HEK293, 2 hours at 37° C.
Target sequence in this assay (P31749 whole entry): as the sequence (P31749 whole entry E17K) above, with K17E counted along it

AKT2 = AKT2 (Homo sapiens (Human), UniProt P31751); experiment: as above; assay type: cell-based; conditions: HEK293, 2 hours at 37° C.
AKT2, sequence (P31751 whole entry): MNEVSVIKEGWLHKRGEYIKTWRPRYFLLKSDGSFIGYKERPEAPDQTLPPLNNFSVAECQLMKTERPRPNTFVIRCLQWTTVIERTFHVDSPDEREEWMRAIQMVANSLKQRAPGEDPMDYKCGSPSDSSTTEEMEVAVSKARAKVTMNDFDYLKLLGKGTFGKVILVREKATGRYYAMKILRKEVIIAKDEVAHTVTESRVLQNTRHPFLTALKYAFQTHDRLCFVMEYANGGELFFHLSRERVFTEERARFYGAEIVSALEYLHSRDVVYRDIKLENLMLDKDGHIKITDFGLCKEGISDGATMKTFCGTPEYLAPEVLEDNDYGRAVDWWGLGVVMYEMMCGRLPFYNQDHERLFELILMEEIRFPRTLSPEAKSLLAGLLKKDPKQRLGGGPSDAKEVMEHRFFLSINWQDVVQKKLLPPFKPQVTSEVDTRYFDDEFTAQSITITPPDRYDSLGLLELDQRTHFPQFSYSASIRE

| Structure (SMILES) | covalent complex formation with AKT1 E17K mutant protein (AKT1 E17K mutant protein) | covalent complex formation with AKT1 E17K mutant protein in presence of competitor (AKT1 E17K mutant protein) | covalent complex formation with AKT1 WT protein (AKT1 WT [1]) | covalent complex formation with AKT1 WT protein in presence of competitor (AKT1 WT [1]) | AKT1 E17K t1/2 (AKT1 E17K [2]) | Off-rate Selectivity E17K/WT (AKT1 E17K [2]) | AKT1 (WT) t1/2 (AKT1 WT [3]) | AKT1 E17K IC50: Selectivity vs AKT1 WT (AKT1 E17K [4]) | AKT1 E17K IC50: Selectivity vs AKT2 (AKT1 E17K [4]) | IC50 (AKT1 E17K [4]) | IC50 (AKT1 WT [5]) | IC50 (AKT2) | selectivity of complex formation, AKT1 E17K versus AKT1 WT (AKT1 E17K mutant protein; comparison of the spectra without competitor) |
| --- | --- | --- | --- | --- | --- | --- | --- | --- | --- | --- | --- | --- | --- |
| Nc1ncccc1-c1nc2cccnc2n1-c1ccc(CNC(=O)C(F)c2ccc(C=O)c(O)c2)cc1 (stereo not shown) [Compound 74, N-({4-[2-(2-aminopyridin-3-yl)imidazo[4,5-b]pyridin-3-yl]phenyl}methyl)-2-fluoro-2-(4-formyl-3-hydroxyphenyl)acetamide] | significant presence of a covalent complex | Essentially little to no covalent complex formation | significant presence of covalent complex | Essentially no covalent complex formation | 73.2 min | 6.1 | 12 min | 5.5 | 130 | < 100 nM | < 100 nM | > 500 nM | – |
| Nc1ncccc1-c1nc2ccc(-c3ccccc3)nc2n1-c1ccc(CNC(=O)Cc2ccc(C=O)c(O)c2F)cc1 [Compound 94, N-({4-[2-(2-aminopyridin-3-yl)-5-phenylimidazo[4,5-b]pyridin-3-yl]phenyl}methyl)-2-(2-fluoro-4-formyl-3-hydroxyphenyl)acetamide] | presence of a covalent complex | Essentially no covalent complex formation | presence of a covalent complex | Essentially no covalent complex formation | 111 min | 4.6 | 24.2 min | 2.5 | 22 | < 100 nM | < 100 nM | 100 to 500 nM | – |
| Nc1ncccc1-c1nc2cccnc2n1-c1ccc(CNC(=O)Cc2ccc(C=O)c(O)c2)cc1 [Compound 96, N-(4-(2-(2-aminopyridin-3-yl)-3H-imidazo[4,5-b]pyridin-3-yl)benzyl)-2-(4-formyl-3-hydroxyphenyl)acetamide] | significant presence of a covalent complex | Essentially little to no covalent complex formation | significant presence of covalent complex | Essentially no covalent complex formation | 55.5 min | 5.2 | 10.7 min | 4.6 | 64 | < 100 nM | < 100 nM | > 500 nM | – |
| CC(=O)Nc1cc(CCNCc2ccc(-n3c(-c4cccnc4N)nc4ccc(-c5ccccc5)nc43)cc2)ccc1C=O [Compound 110, N-(5-(2-((4-(2-(2-aminopyridin-3-yl)-5-phenyl-3H-imidazo[4,5-b]pyridin-3-yl)benzyl)amino)ethyl)-2-formylphenyl)acetamide] | significant presence of a covalent complex | Essentially little to no covalent complex formation | small presence of covalent complex | Essentially no covalent complex formation | 43.2 min | 8.8 | 4.9 min | 1.2 | 5.3 | < 100 nM | < 100 nM | < 100 nM | selective for complex formation with AKT1 E17K |
| Nc1ncccc1-c1nc2ccc(-c3ccccc3)nc2n1-c1ccc(CNCCc2ccc(C=O)cc2)cc1 [Compound 125, 4-(2-((4-(2-(2-aminopyridin-3-yl)-5-phenyl-3H-imidazo[4,5-b]pyridin-3-yl)benzyl)amino)ethyl)benzaldehyde] | presence of covalent complex | Essentially no covalent complex formation | only peaks corresponding to unmodified WT protein | only peaks corresponding to unmodified WT protein | 176 min | 3.9 | 45.3 min | 0.28 | 0.39 | 100 to 500 nM | 100 to 500 nM | 100 to 500 nM | – |
| Nc1ncccc1-c1nc2ccc(-c3ccccc3)nc2n1-c1ccc(CNCCc2ccc(C=O)c(O)c2)cc1 [Compound 133, 4-(2-((4-(2-(2-aminopyridin-3-yl)-5-phenyl-3H-imidazo[4,5-b]pyridin-3-yl)benzyl)amino)ethyl)-2-hydroxybenzaldehyde] | a covalent complex between Compound 133 and AKT1 E17K mutant protein was observed | essentially no covalent complex formation | a noticeable level of covalent complex was formed | essentially no covalent complex formation | 126 min | 5.6 | 22.7 min | 1.4 | 4.7 | < 100 nM | < 100 nM | 100 to 500 nM | – |
